Assay results reported in PubChem BioAssay (NCI).
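Following 48 hours of exposure in 96-well plates, responses at five concentrations were used to interpolate endpoints linearly. The concentration for 50% growth inhibition is given as GI50. TGI marks complete inhibition of growth.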

What was measured:
Test in all cases: DTP human tumour cell line panel, 48 h
[1] = test system: UO-31 renal
[2] = test system: NCI-H226 lung
[3] = test system: SK-OV-3 ovarian
[4] = test system: TK-10 renal
[5] = test system: OVCAR-5 ovarian
[6] = test system: OVCAR-4 ovarian
[7] = test system: MOLT-4 leukemia
[8] = test system: SW-620 colon
[9] = test system: IGROV1 ovarian
[10] = test system: HCT-116 colon

`O=c1c2c3c(sc2n2c(-c4cc(-c5ccccc5)nn4-c4ccccc4)nnc2n1Cc1ccccc1)CCCC3` was tested, and the GI50 [1] was over 100 µM, the TGI [1] was over 100 µM and the GI50 [2] was over 100 µM. For the same compound, the TGI [2] was over 100 µM, the GI50 [3] was over 100 µM and the TGI [3] was over 100 µM. The GI50 [4] was over 100 µM, the TGI [4] was over 100 µM and the GI50 [5] was over 100 µM. It also gave a TGI [5] of over 100 µM, a GI50 [6] of over 100 µM and a TGI [6] of over 100 µM.

In the case of `NC(N)=NS(=O)(=O)c1ccc(NC(=O)c2cccc3c(Nc4ccc(S(N)(=O)=O)cc4)c4ccccc4nc23)cc1`, the TGI [1] is reported as over 100 µM, the TGI [3] is reported as over 100 µM and the TGI [4] is reported as over 100 µM. It also gave a TGI [5] of over 100 µM, a TGI [7] of over 100 µM and a TGI [8] of over 100 µM. It also gave a TGI [6] of over 100 µM and a TGI [9] of over 100 µM.

`O=C(NC12CC3CC(CC(C3)C1)C2)C(=O)c1c[nH]c2ccc(Cl)cc12` was tested, and the TGI [1] was over 100 µM, the TGI [2] was over 100 µM and the TGI [3] was over 100 µM. It also gave a TGI [10] of over 100 µM, a TGI [5] of over 100 µM and a TGI [7] of over 100 µM. The TGI [6] was 56 µM and the TGI [9] was over 100 µM.

Compound `Cn1c2ccccc2c2c(=O)c3ccccc3[nH]c21` has a GI50 [1] of 58.2 µM, a TGI [1] of over 100 µM and a GI50 [2] of 38.8 µM. The TGI [2] was over 100 µM, the GI50 [10] was 17.6 µM and the TGI [10] was 52.9 µM. It also gave a GI50 [4] of 42.4 µM, a TGI [4] of over 100 µM and a GI50 [5] of 30.8 µM. For the same compound, the TGI [5] was over 100 µM, the GI50 [7] was over 100 µM and the TGI [7] was over 100 µM. For the same compound, the GI50 [8] was 40.7 µM, the TGI [8] was over 100 µM and the GI50 [9] was 64.3 µM. It also gave a TGI [9] of over 100 µM.

Work on `Cl[Si]1(Cl)Oc2ccccc2O[Si](Cl)(Cl)Oc2ccccc2O1` yielded a TGI [2] of over 100 µM, a TGI [3] of over 100 µM and a TGI [10] of over 100 µM. For the same compound, the TGI [4] was over 100 µM, the TGI [5] was over 100 µM and the TGI [7] was 42.8 µM. For the same compound, the TGI [8] was 54.5 µM, the TGI [6] was 24.7 µM and the TGI [9] was over 100 µM.

In the case of `CCOC1Oc2ccccc2-c2oc(=O)c(Sc3ccc(C)cc3)cc21` (stereo not given), the GI50 [1] is reported as 16.4 µM, the TGI [1] is reported as over 100 µM and the GI50 [2] is reported as 36.8 µM. The TGI [2] was over 100 µM, the GI50 [3] was 20.5 µM and the TGI [3] was over 100 µM. It also gave a GI50 [4] of 30.8 µM, a TGI [4] of over 100 µM and a GI50 [5] of over 100 µM. For the same compound, the TGI [5] was over 100 µM, the GI50 [7] was 6.73 µM and the TGI [7] was 28.3 µM. The GI50 [8] was 37.5 µM, the TGI [8] was over 100 µM and the GI50 [6] was 25.1 µM. For the same compound, the TGI [6] was over 100 µM, the GI50 [9] was 26 µM and the TGI [9] was over 100 µM.

`CCN(CC)CCNC(=O)c1cn2ncnc(Oc3ccc(NC(=O)Nc4ccc(Cl)c(C(F)(F)F)c4)c(F)c3)c2c1C` showed a GI50 [1] of 2.1 µM, a TGI [1] of 3.63 µM and a GI50 [2] of 2.05 µM. It also gave a TGI [2] of 4.15 µM, a GI50 [3] of 1.66 µM and a TGI [3] of 3.26 µM. It also gave a GI50 [10] of 1.48 µM, a TGI [10] of 3.18 µM and a GI50 [4] of 2.38 µM. The TGI [4] was 4.04 µM, the GI50 [5] was 1.86 µM and the TGI [5] was 3.33 µM. The GI50 [8] was 1.91 µM, the TGI [8] was 3.5 µM and the GI50 [6] was 1.74 µM. It also gave a TGI [6] of 3.36 µM, a GI50 [9] of 1.85 µM and a TGI [9] of 3.5 µM.

Work on `Cn1cc(-c2csc(-c3cn(C)c4ccccc34)n2)c2cnccc21` yielded a GI50 [1] of 1.47 µM, a TGI [1] of 3.16 µM and a GI50 [3] of 2.52 µM. It also gave a TGI [3] of 6.33 µM, a GI50 [10] of 0.925 µM and a TGI [10] of 2.19 µM. It also gave a GI50 [4] of 2.25 µM, a TGI [4] of 4.18 µM and a GI50 [5] of 1.77 µM. It also gave a TGI [5] of 3.25 µM, a GI50 [8] of 1.85 µM and a TGI [8] of 3.63 µM. For the same compound, the GI50 [6] was 1.46 µM, the TGI [6] was 11.1 µM and the GI50 [9] was 1.61 µM. It also gave a TGI [9] of 3.24 µM.

Compound `CCOC(=O)c1ccc(N[C@@H]2c3cc4c(cc3C(C3=CC(=O)C(=O)C(OC)=C3)[C@H]3C(=O)OCC32)OCO4)cc1` (stereo not given in full) has a TGI [1] of 9.43 µM, a TGI [3] of 6.77 µM and a TGI [10] of 18.7 µM. It also gave a TGI [4] of 38.9 µM, a TGI [5] of 36.1 µM and a TGI [7] of over 37.7 µM. For the same compound, the TGI [8] was 20.1 µM, the TGI [6] was over 83 µM and the TGI [9] was 28.5 µM.

For `COC1OC(C)C(OCc2ccccc2)C(OS(=O)(=O)c2ccc(C)cc2)C1OS(=O)(=O)c1ccc(C)cc1` (stereo not given), the TGI [1] was over 100 µM, the TGI [2] was over 100 µM and the TGI [3] was over 100 µM. For the same compound, the TGI [10] was over 100 µM, the TGI [5] was over 100 µM and the TGI [7] was over 100 µM. For the same compound, the TGI [8] was over 100 µM, the TGI [6] was over 100 µM and the TGI [9] was over 100 µM.

Compound `COc1cccc(/C=C2\CCC(C)(CN(C)C)C2=O)c1` (stereo not given) has a TGI [1] of over 100 µM, a TGI [2] of over 100 µM and a TGI [10] of over 100 µM. It also gave a TGI [4] of over 100 µM, a TGI [5] of over 100 µM and a TGI [7] of over 100 µM. It also gave a TGI [8] of over 100 µM, a TGI [6] of over 100 µM and a TGI [9] of over 100 µM.

In the case of `CCCCCCCCCCCCCCCCCCNC(=O)[C@H]1CSC(c2cccs2)N1` (stereo not given in full), the GI50 [1] is reported as 10.3 µM, the TGI [1] is reported as over 50 µM and the GI50 [2] is reported as 1.05 µM. For the same compound, the TGI [2] was 2.01 µM, the GI50 [3] was 4.51 µM and the TGI [3] was 18.3 µM. The GI50 [10] was 0.945 µM, the TGI [10] was 1.8 µM and the GI50 [4] was 1.79 µM. The TGI [4] was over 50 µM, the GI50 [5] was 1.17 µM and the TGI [5] was 2.57 µM. The GI50 [7] was 0.974 µM, the TGI [7] was 15.7 µM and the GI50 [8] was 0.881 µM. The TGI [8] was 1.91 µM, the GI50 [6] was 1.56 µM and the TGI [6] was over 50 µM.

`OC(CN1CC1)C(O)CN1CC1` (stereo not given) was tested, and the GI50 [1] was over 50 µg/mL, the TGI [1] was over 50 µg/mL and the GI50 [2] was over 50 µg/mL. For the same compound, the TGI [2] was over 50 µg/mL, the GI50 [10] was over 50 µg/mL and the TGI [10] was over 50 µg/mL. It also gave a GI50 [4] of over 50 µg/mL, a TGI [4] of over 50 µg/mL and a GI50 [5] of over 50 µg/mL. The TGI [5] was over 50 µg/mL, the GI50 [7] was over 50 µg/mL and the TGI [7] was over 50 µg/mL. The GI50 [8] was over 50 µg/mL, the TGI [8] was over 50 µg/mL and the GI50 [6] was over 50 µg/mL. It also gave a TGI [6] of over 50 µg/mL, a GI50 [9] of over 50 µg/mL and a TGI [9] of over 50 µg/mL.

Compound `O=C1C=C(O)c2[nH]c(=O)ccc2C1=O` has a TGI [1] of over 100 µM, a TGI [2] of over 100 µM and a TGI [3] of over 100 µM. For the same compound, the TGI [10] was over 100 µM, the TGI [4] was over 100 µM and the TGI [7] was over 100 µM. The TGI [8] was over 100 µM, the TGI [6] was 82.5 µM and the TGI [9] was over 100 µM.

In the case of `COC(=O)/C(C#N)=C1\CCC(C(=O)OC)N1C` (stereo not given), the TGI [1] is reported as over 100 µM, the TGI [3] is reported as over 100 µM and the TGI [10] is reported as over 100 µM. It also gave a TGI [4] of over 100 µM, a TGI [7] of over 100 µM and a TGI [6] of over 100 µM. The TGI [9] was over 100 µM.

Work on `CC1=C(C(=O)Nc2ccccc2C)C(/C=C/c2ccccc2)C(C(=O)Nc2ccccc2C)=C(C)N1` yielded a TGI [1] of over 100 µM, a TGI [2] of over 100 µM and a TGI [3] of over 100 µM. For the same compound, the TGI [10] was over 100 µM, the TGI [4] was over 100 µM and the TGI [5] was over 100 µM. For the same compound, the TGI [8] was over 100 µM, the TGI [6] was over 100 µM and the TGI [9] was over 100 µM.

With `CC(CC(=O)Nc1ccc(NC(=O)CC(C)N=NC(N)=S)cc1)N=NC(N)=S` (stereo not given) the TGI [1] was over 100 µM, the TGI [2] was over 100 µM and the TGI [10] was over 100 µM. For the same compound, the TGI [4] was over 100 µM, the TGI [5] was over 100 µM and the TGI [7] was over 100 µM. It also gave a TGI [6] of over 100 µM and a TGI [9] of over 100 µM.

Compound `OC(c1ccc(Br)cc1)(c1cccs1)C1CC1` (stereo not given) has a TGI [1] of 48.1 µM, a TGI [3] of over 100 µM and a TGI [10] of 33.3 µM. It also gave a TGI [4] of 76.4 µM, a TGI [5] of 70.5 µM and a TGI [7] of 67 µM. It also gave a TGI [8] of 87.5 µM, a TGI [6] of 66.7 µM and a TGI [9] of 42.9 µM.
